# Source: patent US6525045B2, “Positive allosteric AMPA receptor modulators” (Boehringer Ingelheim Pharma KG, priority 2000, dated 2003)
# Test system: AMPA receptors
# Test: Electrophysiological measurement of intensification of the agonist-induced current on cells expressing functional AMPA receptors
# Type: cell-based
# Set-up: key: + good; ++ very good activity
# Details: concentrations between 0.3 μmol and 300 μmol
# Protocol: Particular mention should be made of those applications in which the positive modulation of AMPA receptors plays a part. The effect of the compounds according to the invention as AMPA receptor modulators was measured electrophysiologically on cells which express functional AMPA receptors. Investigations were carried out to see whether the test substances have a positive allosteric influence on the agonist-induced current.
# The test was carried out at concentrations of between 0.3 μmol and 300 μmol.
row,Compound,Effectiveness: Intensification of the agonist-induced current
1,"6-chloro-4-methyl-4,5-dihydro-1.3-dithia-4-aza-acenaphthylene 3.3-dioxide [Example 5]",+
2,"CN1Cc2cccc3scc(c23)S1(=O)=O [Example 1, 4-methyl-4,5-dihydro-1,3-dithia-4-aza-acenaphthylene 3,3-dioxide]",++
3,"CCN1Cc2cccc3scc(c23)S1(=O)=O [Example 2, 4-ethyl-4.5-dihydro-1,3-dithia-4-aza-acenaphthylene 3,3-dioxide]",+
4,"CN1Cc2ccc(Cl)c3scc(c23)S1(=O)=O [Example 3, 8-chloro-4-methyl-4,5-dihydro-1,3-dithia-4-aza-acenaphthylene 3,3-dioxide]",+
5,"CN1Cc2c(F)ccc3scc(c23)S1(=O)=O [Example 4, 6-fluoro-4-methyl-4,5-dihydro-1,3-dithia-4-aza-acenaphthylene 3,3-dioxide]",++

# Test system: not given
# Test: not given
# Details: not given
row,Compound,melting point
1,"CN1Cc2c(Br)ccc3scc(c23)S1(=O)=O [Example 11, 6-bromo-4-methyl-4,5-dihydro-1,3-dithia-4-aza-acenaphthylene-3,3-dioxide]",203 °C
2,"CN1Cc2c(C#N)ccc3scc(c23)S1(=O)=O [Example 16, 4-methyl-3,3-dioxo-4,5-dihydro-3H-1,3-dithia-4-aza-acenaphthylene-6-carbonitrile]",238 °C
